Laboratory results published in patent publication US20100197797A1 (priority 2009, published 2010).
Where two headings read alike, the source gives them in different places.

Columns and labels:
[1] = Human pharmacokinetics; conditions: in vivo
Protocol: The pharmacokinetic parameters described herein include area under the plasma concentration-time curve (AUC0-t and AUC0-∞), maximum plasma concentration (Cmax), time of maximum plasma concentration (Tmax) and terminal elimination half-life (T1/2). The time of maximum concentration, Tmax, is determined as the time corresponding to Cmax. Area under the plasma concentration-time curve up to the time corresponding to the last measurable concentration (AUC0-t) is calculated by numerical integration using the linear trapezoidal rule as follows: […]

[2] = Urinary excretion after oral 14C-milnacipran hydrochloride; assay type: in vivo, human
From the text: Milnacipran and its metabolites are eliminated primarily by renal excretion. […] The l-milnacipran carbamoyl-O-glucuronide was the major metabolite excreted in urine and accounted for approximately 17% of the dose; approximately 2% of the dose was excreted in urine as d-milnacipran carbamoyl-O-glucuronide.

[3] = system: rats; conditions: rat, in vivo, 50 mg/kg/day
[4] = target: human monoamine oxidase MAO-B (Homo sapiens, UniProt P27338); experiment: Enzyme inhibition; assay type: biochemical
[5] = system: β-adrenergic receptors; experiment: Receptor affinity in vitro; assay type: binding
[6] = target: neuronal serotonin reuptake (Homo sapiens, UniProt P31645); experiment: Serotonin uptake inhibition in vitro; assay type: biochemical; conditions: preclinical studies
[7] = system: bacterial reverse mutation; experiment: In vitro bacterial reverse mutation assay (Ames test); assay type: cell-based
[8] = system: Cl^− channels; experiment: Ion channel affinity; assay type: binding
[9] = system: fibromyalgia patients; experiment: Placebo-controlled trials in fibromyalgia patients (safety); assay type: in vivo, human; conditions: human, in vivo
From the text: The stated frequencies of adverse reactions represent the proportion of individuals who experienced, at least once, a treatment-emergent adverse reaction of the type listed. A reaction was considered treatment emergent if it occurred for the first time or worsened while receiving therapy following baseline evaluation.

[10] = system: opiate receptors; experiment: Receptor affinity in vitro; assay type: binding
[11] = system: benzodiazepine receptors; experiment: Receptor affinity in vitro; assay type: binding
[12] = system: human lymphocytes; assay type: cell-based
[13] = system: serotonergic (5-HT1-7) receptors; experiment: Receptor affinity in vitro; assay type: binding
[14] = system: rabbits; experiment: Embryotoxicity/teratogenicity in rabbits, period of organogenesis; assay type: in vivo, rabbit; conditions: up to 60 mg/kg/day (6 times the MRHD)
[15] = system: Na^+ channels; experiment: Ion channel affinity; assay type: binding
[16] = system: dopamine (D1-5) receptors; experiment: Receptor affinity in vitro; assay type: binding
[17] = system: mice; experiment: Embryotoxicity/teratogenicity in mice, period of organogenesis; assay type: in vivo, mouse; conditions: up to 125 mg/kg/day (3 times the MRHD)
[18] = system: primate; conditions: in vivo
From the text: (§1) The clinical significance of the finding is not known.

[19] = system: rats; conditions: rat, in vivo, 15 mg/kg
From the text: as §1

[20] = system: mouse; conditions: in vivo
[21] = system: Ca^++ channels; experiment: Ion channel affinity; assay type: binding
[22] = target: human monoamine oxidase MAO-A (Homo sapiens, UniProt P21397); experiment: Enzyme inhibition; assay type: biochemical
[23] = system: α-adrenergic receptors; experiment: Receptor affinity in vitro; assay type: binding
[24] = design: species or system human; conditions: in vivo, po
From the text: AUC0-∞ and T½ were similar in healthy subjects and subjects with mild and moderate hepatic impairment. […] Caution should be exercised in patients with severe hepatic impairment.

[25] = system: muscarinic (M1-5) receptors; experiment: Receptor affinity in vitro; assay type: binding
[26] = system: histamine (H1-4) receptors; experiment: Receptor affinity in vitro; assay type: binding
[27] = human, in vivo
From the text: Dosage adjustment based on gender is not necessary.

[28] = system: rats; experiment: Oral administration to rats during late gestation; assay type: in vivo
Protocol: The no-effect dose for maternal and offspring toxicity was 2.5 mg/kg/day (approximately 0.1 times the MRHD on a mg/m^2 basis).

[29] = system: rats; experiment: Reproductive toxicity in rats (dead fetuses in utero); assay type: in vivo, rat; conditions: 5 mg/kg/day (0.25 times the MRHD on a mg/m^2 basis)
[30] = system: patients; experiment: Spontaneous / postmarketing reports; assay type: in vivo, human; conditions: in vivo
From the text: However, because these adverse reactions were reported voluntarily from a population of uncertain size, it is not always possible to reliably estimate their frequency or establish a causal relationship to drug exposure.

[31] = system: L5178Y TK+/− mouse lymphoma; assay type: cell-based
[32] = system: γ-aminobutyric acid (GABA) receptors; experiment: Receptor affinity in vitro; assay type: binding
[33] = target: acetylcholinesterase (Homo sapiens, UniProt P22303); experiment: Enzyme inhibition; assay type: biochemical
[34] = system: rat; conditions: in vivo
[35] = target: T1, uptake of dopamine (Homo sapiens, UniProt Q01959); conditions: cited from earlier work
[36] = target: T1, uptake of dopamine; experiment: Dopamine uptake; assay type: biochemical; conditions: preclinical studies
[37] = Drug interaction studies in healthy adult subjects; assay type: in vivo, human; conditions: human, in vivo
Protocol: The drug interaction studies described below were conducted in healthy adult subjects.

[38] = in vivo
From the text: Milnacipran is not a controlled substance.
These withdrawal symptoms can be severe. Thus, in certain embodiments, milnacipran hydrochloride should be tapered and not abruptly discontinued after extended use.

[39] = system: K^+ channels; experiment: Ion channel affinity; assay type: binding
[40] = oral 14C-milnacipran hydrochloride

T1 sequence (Q01959 whole entry): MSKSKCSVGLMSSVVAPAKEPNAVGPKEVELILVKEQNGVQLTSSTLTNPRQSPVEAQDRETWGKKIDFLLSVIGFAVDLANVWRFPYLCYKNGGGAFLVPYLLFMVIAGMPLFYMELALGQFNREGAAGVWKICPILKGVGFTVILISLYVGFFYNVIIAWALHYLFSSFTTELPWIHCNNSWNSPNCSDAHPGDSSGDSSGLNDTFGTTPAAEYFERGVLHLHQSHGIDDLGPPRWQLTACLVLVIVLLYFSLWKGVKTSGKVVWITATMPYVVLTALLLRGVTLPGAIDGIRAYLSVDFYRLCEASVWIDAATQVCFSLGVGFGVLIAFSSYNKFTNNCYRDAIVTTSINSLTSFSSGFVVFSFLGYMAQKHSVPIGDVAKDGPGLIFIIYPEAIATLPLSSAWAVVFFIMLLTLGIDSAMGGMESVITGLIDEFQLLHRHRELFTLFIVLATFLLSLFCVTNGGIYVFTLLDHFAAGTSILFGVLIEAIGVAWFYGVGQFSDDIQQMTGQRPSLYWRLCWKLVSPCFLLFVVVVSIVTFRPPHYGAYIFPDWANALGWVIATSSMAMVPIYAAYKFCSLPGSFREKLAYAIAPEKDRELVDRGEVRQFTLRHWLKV
Sequence of human monoamine oxidase MAO-B (P27338 whole entry): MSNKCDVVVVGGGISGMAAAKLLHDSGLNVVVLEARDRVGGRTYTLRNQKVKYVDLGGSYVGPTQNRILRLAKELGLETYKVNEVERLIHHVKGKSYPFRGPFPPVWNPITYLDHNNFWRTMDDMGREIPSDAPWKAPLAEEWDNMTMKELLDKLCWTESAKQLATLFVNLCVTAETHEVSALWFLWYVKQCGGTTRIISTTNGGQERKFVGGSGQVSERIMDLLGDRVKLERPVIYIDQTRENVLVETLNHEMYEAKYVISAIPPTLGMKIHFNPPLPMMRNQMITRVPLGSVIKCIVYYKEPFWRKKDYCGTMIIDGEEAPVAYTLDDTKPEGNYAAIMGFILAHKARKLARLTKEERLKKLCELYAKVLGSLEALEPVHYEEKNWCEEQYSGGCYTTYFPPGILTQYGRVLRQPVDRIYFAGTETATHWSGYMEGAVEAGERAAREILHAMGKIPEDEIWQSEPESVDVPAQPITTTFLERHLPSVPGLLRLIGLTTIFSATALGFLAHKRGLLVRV
Sequence of acetylcholinesterase (P22303 32-614, species assumed): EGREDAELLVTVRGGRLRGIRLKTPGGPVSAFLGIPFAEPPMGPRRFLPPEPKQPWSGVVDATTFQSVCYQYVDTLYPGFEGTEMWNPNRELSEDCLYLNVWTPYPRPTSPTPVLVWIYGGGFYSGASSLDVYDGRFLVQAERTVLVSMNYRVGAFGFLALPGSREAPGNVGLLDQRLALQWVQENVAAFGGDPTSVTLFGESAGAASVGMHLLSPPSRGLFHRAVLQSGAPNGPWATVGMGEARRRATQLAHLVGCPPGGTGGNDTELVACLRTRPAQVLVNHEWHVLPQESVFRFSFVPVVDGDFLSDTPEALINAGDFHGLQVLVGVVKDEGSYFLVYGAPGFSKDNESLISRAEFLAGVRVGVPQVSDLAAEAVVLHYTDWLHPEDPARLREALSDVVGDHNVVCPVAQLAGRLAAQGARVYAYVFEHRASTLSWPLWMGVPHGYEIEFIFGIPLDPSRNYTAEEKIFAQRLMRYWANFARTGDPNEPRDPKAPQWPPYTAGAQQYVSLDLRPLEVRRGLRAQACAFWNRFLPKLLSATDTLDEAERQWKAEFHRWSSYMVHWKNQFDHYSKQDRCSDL
Sequence of human monoamine oxidase MAO-A (P21397 whole entry): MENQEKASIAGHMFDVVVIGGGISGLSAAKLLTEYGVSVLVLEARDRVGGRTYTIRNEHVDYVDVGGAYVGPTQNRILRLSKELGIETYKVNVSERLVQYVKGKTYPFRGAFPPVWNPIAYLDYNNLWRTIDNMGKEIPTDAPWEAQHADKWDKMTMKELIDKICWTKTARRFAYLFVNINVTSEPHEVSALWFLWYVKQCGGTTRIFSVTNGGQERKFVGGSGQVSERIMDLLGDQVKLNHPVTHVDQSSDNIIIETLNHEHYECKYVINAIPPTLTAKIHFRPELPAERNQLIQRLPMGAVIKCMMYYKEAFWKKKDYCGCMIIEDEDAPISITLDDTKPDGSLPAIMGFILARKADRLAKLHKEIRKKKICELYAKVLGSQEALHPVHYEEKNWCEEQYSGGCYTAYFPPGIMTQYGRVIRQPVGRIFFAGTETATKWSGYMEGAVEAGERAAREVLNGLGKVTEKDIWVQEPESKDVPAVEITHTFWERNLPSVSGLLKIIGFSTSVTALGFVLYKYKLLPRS
Sequence of neuronal serotonin reuptake (P31645 whole entry): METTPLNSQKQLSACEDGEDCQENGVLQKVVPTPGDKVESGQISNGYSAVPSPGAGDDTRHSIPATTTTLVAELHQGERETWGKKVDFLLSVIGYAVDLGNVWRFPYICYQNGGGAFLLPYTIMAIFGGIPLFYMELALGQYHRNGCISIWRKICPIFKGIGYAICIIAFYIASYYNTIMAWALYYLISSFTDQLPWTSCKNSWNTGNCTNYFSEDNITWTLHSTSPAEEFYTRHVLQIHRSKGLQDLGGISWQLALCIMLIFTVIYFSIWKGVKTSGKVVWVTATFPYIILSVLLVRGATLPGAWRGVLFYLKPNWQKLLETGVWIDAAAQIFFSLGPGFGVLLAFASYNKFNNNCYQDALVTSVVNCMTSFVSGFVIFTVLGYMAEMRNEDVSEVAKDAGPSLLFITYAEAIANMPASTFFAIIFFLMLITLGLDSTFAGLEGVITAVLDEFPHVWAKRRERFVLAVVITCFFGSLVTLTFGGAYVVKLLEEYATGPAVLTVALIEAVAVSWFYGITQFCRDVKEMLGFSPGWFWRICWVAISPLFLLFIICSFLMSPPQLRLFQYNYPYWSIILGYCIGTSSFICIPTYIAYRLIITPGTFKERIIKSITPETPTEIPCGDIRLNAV

CCN(CC)C(=O)[C@]1(c2ccccc2)C[C@@H]1CN.Cl [(1R,2S) enantiomer, (1R,2S)-2-aminomethyl-1-phenyl-N,N-diethylcyclopropanecarboxamide hydrochloride]
half-life ([1]; human): 4 to 6 h

CCN(CC)C(=O)[C@@]1(c2ccccc2)C[C@H]1CN.Cl [(1S,2R) enantiomer, (1S,2R)-2-aminomethyl-1-phenyl-N,N-diethylcyclopropanecarboxamide hydrochloride]
half-life ([1]; human): 8 to 10 h

CCNC(=O)[C@]1(c2ccccc2)C[C@@H]1CN [N-desethyl milnacipran]
dose excreted in urine as this species [2, 40]: Approximately 8%

CCN(CC)C(=O)[C@]1(c2ccccc2)C[C@@H]1CNC(=O)O[C@@H]1O[C@H](C(=O)O)[C@@H](O)[C@H](O)[C@H]1O [d-milnacipran carbamoyl-O-glucuronide]
dose excreted in urine as this species [2, 40]: approximately 2%

CCN(CC)C(=O)[C@]1(c2ccccc2)C[C@@H]1CN [d-milnacipran]
dose excreted in urine as this species [2, 40]: 31%

CCN(CC)C(=O)[C@@]1(c2ccccc2)C[C@H]1CNC(=O)O[C@@H]1O[C@H](C(=O)O)[C@@H](O)[C@H](O)[C@H]1O [l-milnacipran carbamoyl-O-glucuronide]
dose excreted in urine as this species [2, 40]: approximately 17%

CCN(CC)C(=O)[C@@]1(c2ccccc2)C[C@H]1CN [l-milnacipran]
dose excreted in urine as this species [2, 40]: 24%

CCN(CC)C(=O)C1(c2ccccc2)CC1CN (stereo not shown) [milnacipran]
tumor incidence [3]: statistically significant increase in the incidence of thyroid C-cell adenomas and combined adenomas and carcinomas in males | inhibition of activity [4]: does not inhibit | affinity [5]: no significant affinity | inhibition of neuronal serotonin reuptake [6]: potent inhibitor | mutagenicity [7]: not mutagenic | dose excreted in urine as this species ([2]; human, in vivo, po): approximately 55% | affinity [8]: no significant affinity | withdrawal due to constipation [9]: 1% | withdrawal due to dizziness [9]: 1% | withdrawal due to headache [9]: 2% | withdrawal due to heart rate increased [9]: 1% | withdrawal due to hyperhidrosis [9]: 1% | withdrawal due to nausea [9]: 6% | withdrawal due to palpitations [9]: 3% | withdrawal due to vomiting [9]: 1% | withdrawal symptoms following discontinuation [9]: Withdrawal symptoms have been observed | affinity [10]: no significant affinity | affinity [11]: no significant affinity | clastogenicity [12]: not clastogenic | affinity [13]: no significant affinity | embryotoxicity or teratogenicity [14]: did not result in embryotoxicity or teratogenicity | affinity [15]: no significant affinity | affinity [16]: no significant affinity | embryotoxicity or teratogenicity [17]: did not result in embryotoxicity or teratogenicity | dose excreted unchanged in urine ([1]; human): 55% | half-life ([1]; human): 6 to 8 h | time to steady-state levels ([1]; human): 36 to 48 h | Vd ([1]; human, iv): ~400 L | bioavailability ([1]; human, po): 85 to 90% | exposure vs dose [1]: increased proportionally | keratitis of the eye [18]: did not show this response | hepatic findings [19]: increased incidences of centrilobular vacuolation of the liver in male rats and eosinophilic foci in male and female rats | keratitis of the eye [19]: increased incidence of keratitis of the eye | clastogenicity [20]: not clastogenic | affinity [21]: no significant affinity | inhibition of activity [22]: does not inhibit | affinity [23]: no significant affinity | higher AUC0-∞ than healthy subjects ([24]; human, 50 mg): 31% | higher T½ than healthy subjects ([24]; human, 50 mg): 55% | T½ vs healthy subjects [24]: similar | affinity [25]: no significant affinity | affinity [26]: no significant affinity | higher AUC ([27]; both): about 20% | higher Cmax ([27]; both): about 20% | higher AUC [27]: about 30% | higher Cmax [27]: about 30% | pup body weight and viability on postpartum day 4 ([28]; rat, in vivo, po, 5 mg/kg/day): decrease in pup body weight and viability | no-effect dose for maternal and offspring toxicity ([28]; rats (approximately 0.1 times the MRHD)): 2.5 mg/kg/day | incidence of dead fetuses in utero [29]: increased the incidence of dead fetuses in utero | liver findings [30]: cases of increased liver enzymes and reports of severe liver injury, including fulminant hepatitis | mutagenicity [31]: not mutagenic | affinity [32]: no significant affinity | inhibition of activity [33]: does not inhibit | keratitis of the eye [34]: did not show this response | effect on uptake of dopamine [35]: does not affect | effect on uptake of dopamine or other neurotransmitters [36]: without directly affecting | adverse events after switching from clomipramine [37]: an increase in adverse events (e.g., euphoria and postural hypotension) | behavioral signs indicative of abuse potential [38]: did not produce behavioral signs indicative of abuse potential | physical dependence [38]: produces physical dependence | affinity [39]: no significant affinity
